Experimental data taken from patent publication US20120252865A1, “CARBAMATE DERIVATIVES IN PARTICULAR FOR THE TREATMENT OF NEUROLOGICAL DISORDERS” (SIGMA-TAU INDUSTRIE FARMACEUTICHE RIUNITE S.P.A., priority 2009, published 2012).

Legend:
[1] = molecular target: T1, fatty acid amide hydrolase (FAAH, EC 3.5.1.4) (Mus musculus, UniProt O08914); assay: FAAH assay: release of [1-14C]AA from [1-14C]AnNH by RP-HPLC; format: biochemical; settings: mouse brain homogenate; for IC50: 37° C., 15 min, pH 9.0; for Ki: Lineweaver-Burk analysis
T1 construct: The reaction was initiated by the addition of mouse brain homogenate (40 μg); from tissue; host or cells: mouse brain homogenate
T1 sequence (O08914 1-579): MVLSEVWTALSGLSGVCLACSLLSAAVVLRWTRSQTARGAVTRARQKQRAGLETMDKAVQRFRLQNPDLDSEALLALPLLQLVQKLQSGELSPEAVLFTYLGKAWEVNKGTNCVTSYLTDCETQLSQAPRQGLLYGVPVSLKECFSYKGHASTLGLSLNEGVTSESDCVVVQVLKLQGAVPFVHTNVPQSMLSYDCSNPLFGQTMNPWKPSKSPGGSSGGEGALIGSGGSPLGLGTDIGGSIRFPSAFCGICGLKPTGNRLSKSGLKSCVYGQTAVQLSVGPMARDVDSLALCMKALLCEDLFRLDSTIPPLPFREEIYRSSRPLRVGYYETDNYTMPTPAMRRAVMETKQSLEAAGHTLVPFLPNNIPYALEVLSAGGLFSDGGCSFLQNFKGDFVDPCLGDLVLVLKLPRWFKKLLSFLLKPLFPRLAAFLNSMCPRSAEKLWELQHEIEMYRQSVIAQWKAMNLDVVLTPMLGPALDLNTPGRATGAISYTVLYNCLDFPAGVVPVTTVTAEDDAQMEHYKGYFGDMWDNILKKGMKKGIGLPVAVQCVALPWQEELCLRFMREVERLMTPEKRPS
Method: The compounds of the present invention show affinity and inhibit the enzymatic activity of the fatty acid amide hydrolase enzyme.
The assay of FAAH (EC 3.5.1.4) was performed by measuring the release of [1-^14C]AA from [1-^14C]AnNH (52 mCi/mmol), using RP-HPLC. Also [^3H]AnNH (205 Ci/mmol) could be used as substrate, measuring the release of [^3H]AA under the same experimental conditions described below for [1-^14C]AnNH. Compounds of the invention, at various concentrations, were added in 200 μl hydrolase assay buffer (50 mM Tris-HCl, pH 9.0), in 2-ml Eppendorf tubes, 20 min before adding [1-^14C]AnNH2, up to a concentration of 10 μM. The reaction was initiated by the addition of mouse brain homogenate (40 μg), and after incubation at 37° C. for 15 min it was stopped by the addition of 800 μl ice-cold methanol/chloroform (2:1, v/v) with vortexing. This mixture was allowed to stand at room temperature for 30 min, then 240 μl chloroform and 240 μl water were added with vortexing. After 10 min at room temperature, the mixture was centrifuged at 3000 g for 5 min, the upper aqueous layer was removed by suction and the lower organic phase was dried by spinning the samples in a DNA MINI speedvac (Heto-Holten, Denmark), at 100 mbar and 30° C. for 30 min. The residue was dissolved into 50 μl methanol and subjected to RP-HPLC analysis for AA quantitation, as detailed below. FAAH specific activity was expressed as pmol AA released/min/mg protein. Kinetic studies were performed by Lineweaver-Burk analysis, using [1-^14C]AnNH, [1-^14C]ODNHEtOH, or [1-^14C]ODNH2 in the concentration range 0-12 μM. Fitting of the experimental points by a linear regression programme (Kaleidagraph 3.0) yielded straight lines with r values >0.97.

mechanical hyperalgesia = assay: Paw withdrawal test for mechanical hyperalgesia (Randall-Selitto analgesimeter); format: in vivo; settings: rat; for analgesic activity (nociceptive threshold, paw withdrawal): acute oral treatment, 30 mg/kg (FIG. 1)
Method: The paw withdrawal test was used to assess mechanical hyperalgesia. The nociceptive threshold, expressed in grams, was measured by applying increasing pressure to the left and right hind paws using a Randall-Selitto analgesimeter (Ugo Basile, Varese, Italy). The parameter used to quantify the nociceptive threshold was defined as the pressure (grams) at which the rat withdrew its paw. Rats were habituated to the testing procedures and handling by the investigator in the week prior to the experiment.
Dose response experiments at 10, 30 and 100 mg/kg were also conducted with ST4068, ST3911 and ST3913.

CB1R = CB1R (Homo sapiens, UniProt P21554); assay: Selectivity profile: CB1R; format: binding; settings: tested at a multiple of the FAAH IC50
Method: (§1) The compounds of the present invention were also evaluated with regard to their selectivity profile against the following targets: AMT, NAPE-PLD, MAGL, DAGL, CB1/CB2 and TRPV1 according to the procedures described in Maccarrone M., et al., J. Biol. Chem., 2000, 275, 13484, Fezza F., et al., Anal Biochem., 2005, 339, 113, Dinh T. P., et al., 2002, Proc. Natl. Acad. Sci. 99, 10819, Bisogno T., et al., 2003, J. Cell Biol., 163, 463, Maccarrone M., et al., J. Biol. Chem., 2000, 275, 31938, Ross R. A., et al., Br. J. Pharmacol., 2001, 132, 631.

CB2R = CB2R (Homo sapiens, UniProt P34972); assay: Selectivity profile: CB2R; format: binding; settings: tested at a multiple of the FAAH IC50
Method: as §1

TRPV1 = assay: Selectivity profile: TRPV1; format: binding; settings: tested at a multiple of the FAAH IC50
Method: as §1

NAPE-PLD = NAPE-PLD (Homo sapiens, UniProt Q6IQ20); assay: Selectivity profile: NAPE-PLD; format: biochemical; settings: tested at a multiple of the FAAH IC50
Method: as §1

AMT = assay: Selectivity profile: AMT; format: cell-based
Method: as §1

DAGL = assay: Selectivity profile: DAGL; format: biochemical; settings: tested at a multiple of the FAAH IC50
Method: as §1

MAGL = molecular target: T2, MAGL (Homo sapiens, UniProt Q99685); assay: Selectivity profile: MAGL; format: biochemical; settings: tested at a multiple of the FAAH IC50
T2 sequence (Q99685 1-303): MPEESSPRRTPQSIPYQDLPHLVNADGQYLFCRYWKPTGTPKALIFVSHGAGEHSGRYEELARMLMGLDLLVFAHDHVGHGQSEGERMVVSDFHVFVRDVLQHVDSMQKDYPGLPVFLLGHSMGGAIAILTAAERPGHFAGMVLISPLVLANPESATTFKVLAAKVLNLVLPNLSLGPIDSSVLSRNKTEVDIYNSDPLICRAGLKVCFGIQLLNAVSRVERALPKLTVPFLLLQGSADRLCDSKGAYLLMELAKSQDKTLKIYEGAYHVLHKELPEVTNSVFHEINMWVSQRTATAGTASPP
Method: as §1

[2] = 100 mg/kg, compared with 30 mg/kg (FIGS. 2, 3 and 4)

Sequence of NAPE-PLD (Q6IQ20 whole entry, species assumed): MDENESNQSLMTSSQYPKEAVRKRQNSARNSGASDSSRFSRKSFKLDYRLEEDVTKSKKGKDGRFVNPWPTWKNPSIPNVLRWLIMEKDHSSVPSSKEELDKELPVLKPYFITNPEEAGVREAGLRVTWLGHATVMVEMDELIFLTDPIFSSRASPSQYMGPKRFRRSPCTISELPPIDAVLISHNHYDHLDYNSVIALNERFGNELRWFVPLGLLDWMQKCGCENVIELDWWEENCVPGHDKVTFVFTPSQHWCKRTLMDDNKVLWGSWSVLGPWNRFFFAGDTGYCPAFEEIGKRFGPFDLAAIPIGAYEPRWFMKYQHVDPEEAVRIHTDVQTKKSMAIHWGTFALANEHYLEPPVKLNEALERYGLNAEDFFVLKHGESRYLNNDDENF
Sequence of CB1R (P21554 whole entry): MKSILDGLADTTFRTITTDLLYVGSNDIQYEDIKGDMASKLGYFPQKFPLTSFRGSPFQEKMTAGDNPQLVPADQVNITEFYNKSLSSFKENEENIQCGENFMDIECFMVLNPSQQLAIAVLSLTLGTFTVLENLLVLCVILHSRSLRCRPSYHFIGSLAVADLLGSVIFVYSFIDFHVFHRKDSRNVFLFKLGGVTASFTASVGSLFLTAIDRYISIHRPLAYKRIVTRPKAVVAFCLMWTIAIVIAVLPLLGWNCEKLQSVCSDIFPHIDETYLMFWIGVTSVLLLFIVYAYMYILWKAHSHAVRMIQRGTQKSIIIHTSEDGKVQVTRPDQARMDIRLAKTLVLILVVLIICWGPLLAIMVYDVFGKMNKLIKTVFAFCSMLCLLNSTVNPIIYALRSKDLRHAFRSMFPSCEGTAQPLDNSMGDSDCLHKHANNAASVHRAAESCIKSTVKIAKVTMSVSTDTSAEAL
Sequence of CB2R (P34972 whole entry): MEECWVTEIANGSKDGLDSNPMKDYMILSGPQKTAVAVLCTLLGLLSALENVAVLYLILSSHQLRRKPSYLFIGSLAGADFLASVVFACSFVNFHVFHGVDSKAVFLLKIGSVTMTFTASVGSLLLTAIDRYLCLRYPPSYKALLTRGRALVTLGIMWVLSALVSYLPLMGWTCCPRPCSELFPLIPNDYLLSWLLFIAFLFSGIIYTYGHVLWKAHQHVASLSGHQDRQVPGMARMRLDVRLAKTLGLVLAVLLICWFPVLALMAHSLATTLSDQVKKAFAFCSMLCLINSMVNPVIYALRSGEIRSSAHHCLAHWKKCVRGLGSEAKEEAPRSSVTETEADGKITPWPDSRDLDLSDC

Q: With `Cc1oc(-c2cccc(OC(=O)NC3CCCCC3)c2)cc1C(N)=O` [Example 8, cyclohexyl-carbamic acid 3-(4-carbamoyl-5-methyl-furan-2-yl)-phenyl ester] as the molecule, how does the IC50 [1] read?
A: 100 to 500 nM

Q: For `CCCCNC(=O)Oc1cccc(-n2ccc(C(N)=O)c2)c1` [Example 1, butyl-carbamic acid 3-(3-carbamoyl-pyrrol-1-yl)-phenyl ester], which IC50 [1] is on record?
A: 100 to 500 nM

Q: And the Ki [1]?
A: 10 to 100 nM

Q: With `C#CCCCCCCCCCNC(=O)Oc1cccc(-n2ccc(C(N)=O)c2)c1` [Example 2, undec-10-ynyl-carbamic acid 3-(3-carbamoyl-pyrrol-1-yl)-phenyl ester] as the molecule, how does the IC50 [1] read?
A: < 10 nM

Q: And the Ki [1]?
A: < 10 nM

Q: What about the “analgesic activity, dose response” value (mechanical hyperalgesia; 30 mg/kg (FIGS. 2, 3 and 4)) of the same molecule?
A: did exert analgesic activity

Q: What about the “analgesic activity, dose response” value (mechanical hyperalgesia; [2]) of the same molecule?
A: higher effect

Q: And the “analgesic activity (nociceptive threshold, paw withdrawal)” value (mechanical hyperalgesia)?
A: significant analgesic activity

Q: How did the IC50 [1] turn out when `C#CCCCCCCCCCOC(=O)c1ccn(-c2cccc(OC(=O)NCCCC)c2)c1` [Example 11, 1-(3-butylcarbamoyloxy-phenyl)-1H-pyrrole-3-carboxylic acid undec-10-ynyl ester] was run?
A: 100 to 500 nM

Q: Which IC50 [1] does the source give for `NC(=O)c1ccn(-c2cccc(OC(=O)NC3CCCCC3)c2)c1` [Example 3, cyclohexyl-carbamic acid 3-(3-carbamoyl-pyrrol-1-yl)-phenyl ester] here?
A: 100 to 500 nM

Q: And the Ki [1]?
A: 10 to 100 nM

Q: What does the source list for `Cc1cc(C(N)=O)c(-c2cccc(OC(=O)NCCCCCCc3ccccc3)c2)o1` [Example 6, (6-phenyl-hexyl)-carbamic acid 3-(3-carbamoyl-5-methyl-furan-2-yl)-phenyl ester]?
A: IC50 [1]: < 10 nM; Ki [1]: < 10 nM; analgesic activity, dose response (mechanical hyperalgesia; 30 mg/kg (FIGS. 2, 3 and 4)): did exert analgesic activity; analgesic activity, dose response (mechanical hyperalgesia; [2]): higher effect; analgesic activity (nociceptive threshold, paw withdrawal) (mechanical hyperalgesia): significant analgesic activity

Q: For `NC(=O)c1ccn(-c2cccc(OC(=O)NCCCCCCc3ccccc3)c2)c1` [Example 4, (6-phenyl-hexyl)-carbamic acid 3-(3-carbamoyl-pyrrol-1-yl)-phenyl ester], which IC50 [1] is on record?
A: < 10 nM

Q: What about the Ki [1] of the same molecule?
A: < 10 nM

Q: And the “inhibitory activity on CB1R” value (CB1R)?
A: −−−− (1000 times [IC50] with an inhibitory activity on the target <60%)

Q: And the “inhibitory activity on CB2R” value (CB2R)?
A: −−−− (1000 times [IC50] with an inhibitory activity on the target <60%)

Q: What about the “inhibitory activity on TRPV1” value (TRPV1) of the same molecule?
A: −−−− (1000 times [IC50] with an inhibitory activity on the target <60%)

Q: And the “inhibitory activity on NAPE-PLD” value (NAPE-PLD)?
A: −−−− (1000 times [IC50] with an inhibitory activity on the target <60%)

Q: What about the “AMT, % @ 1 μM” value (AMT) of the same molecule?
A: 80% @ 1 μM

Q: And the “inhibitory activity on DAGL” value (DAGL)?
A: −−−− (1000 times [IC50] with an inhibitory activity on the target <60%)

Q: And the “inhibitory activity on MAGL” value (MAGL)?
A: −−−− (1000 times [IC50] with an inhibitory activity on the target <60%)

Q: What about the “analgesic activity, dose response” value (mechanical hyperalgesia; 30 mg/kg (FIGS. 2, 3 and 4)) of the same molecule?
A: did exert analgesic activity

Q: And the “analgesic activity, dose response” value (mechanical hyperalgesia; [2])?
A: higher effect

Q: And the “analgesic activity (nociceptive threshold, paw withdrawal)” value (mechanical hyperalgesia)?
A: significant analgesic activity

Q: `Cc1oc(-c2cccc(OC(=O)NCCCCCCc3ccccc3)c2)cc1C(N)=O` [Example 9, (6-phenyl-hexyl)-carbamic acid 3-(4-carbamoyl-5-methyl-furan-2-yl)-phenyl ester] was tested. Which IC50 [1] did it give?
A: 10 to 100 nM

Q: What about the Ki [1] of the same molecule?
A: < 10 nM

Q: And the “inhibitory activity on CB1R” value (CB1R)?
A: −−−− (1000 times [IC50] with an inhibitory activity on the target <60%)

Q: And the “inhibitory activity on CB2R” value (CB2R)?
A: −−−− (1000 times [IC50] with an inhibitory activity on the target <60%)

Q: And the “inhibitory activity on TRPV1” value (TRPV1)?
A: −−−− (1000 times [IC50] with an inhibitory activity on the target <60%)

Q: What about the “inhibitory activity on NAPE-PLD” value (NAPE-PLD) of the same molecule?
A: −−−− (1000 times [IC50] with an inhibitory activity on the target <60%)

Q: And the “AMT, % @ 1 μM” value (AMT)?
A: 80% @ 1 μM

Q: And the “inhibitory activity on DAGL” value (DAGL)?
A: −−−− (1000 times [IC50] with an inhibitory activity on the target <60%)

Q: What about the “inhibitory activity on MAGL” value (MAGL) of the same molecule?
A: −−−− (1000 times [IC50] with an inhibitory activity on the target <60%)

Q: Which results are given for `CCCCNC(=O)Oc1cccc(-c2oc(C)cc2C(N)=O)c1` [Example 5, butyl-carbamic acid 3-(3-carbamoyl-5-methyl-furan-2-yl)-phenyl ester]?
A: IC50 [1]: 500 to 5000 nM; Ki [1]: 100 to 500 nM

Q: How did the IC50 [1] turn out when `Cc1cc(C(N)=O)c(-c2cccc(OC(=O)NC3CCCCC3)c2)o1` [Example 13, cyclohexyl-carbamic acid 3-(3-carbamoyl-5-methyl-furan-2-yl)-phenyl ester] was run?
A: 100 to 500 nM

Q: Which results are given for `Cc1cc(C(N)=O)c(-c2cccc(OC(=O)NCCCCCCc3ccccc3)c2)s1` [Example 7, (6-phenyl-hexyl)-carbamic acid 3-(3-carbamoyl-5-methyl-thiophen-2-yl)-phenyl ester]?
A: IC50 [1]: < 10 nM; Ki [1]: < 10 nM; inhibitory activity on CB1R (CB1R): −−−− (1000 times [IC50] with an inhibitory activity on the target <60%); inhibitory activity on CB2R (CB2R): −−−− (1000 times [IC50] with an inhibitory activity on the target <60%); inhibitory activity on NAPE-PLD (NAPE-PLD): −−−− (1000 times [IC50] with an inhibitory activity on the target <60%); AMT, % @ 1 μM (AMT): 60% @ 1 μM; inhibitory activity on MAGL (MAGL): −−−− (1000 times [IC50] with an inhibitory activity on the target <60%)

Q: How did the IC50 [1] turn out when `CCCCNC(=O)Oc1cccc(-n2ccc(C(=O)OCCCCCCc3ccccc3)c2)c1` [Example 12, 1-(3-butylcarbamoyloxy-phenyl)-1H-pyrrole-3-carboxylic acid 6-phenyl-hexyl ester] was run?
A: 100 to 500 nM

Q: For `CCCCNC(=O)Oc1cccc(-c2oc(C)cc2C(=O)OCC)c1` [Example 10, 2-(3-butylcarbamoyloxy-phenyl)-5-methyl-furan-3-carboxylic acid ethyl ester], which IC50 [1] is on record?
A: 100 to 500 nM

Q: Which IC50 [1] does the source give for `Cc1cc(C(N)=O)c(-c2cccc(OC(=O)NC3CCCCC3)c2)s1` [Example 14, cyclohexyl-carbamic acid 3-(3-carbamoyl-5-methyl-thiophen-2-yl)-phenylester] here?
A: 100 to 500 nM
